Source: patent US12419339B2, “Aerosolized formulation” (priority 2018, dated 2025)
Like-named read-outs stand apart in the source and are kept apart here.

Type: physicochemical
Details: prior to aerosolization

SMILES | liquid analysis, content (formulation containing 1-menthol (83.1% water, 15.0% 2-hydroxy-propyl-β-cyclodextrin, 0.9% 1-menthol, 1% nicotine)) | liquid analysis, content (formulation containing 1-menthol) [mg/g] | liquid analysis, content (formulation containing vanillin) [mg/g]
CC1CCC(C(C)C)C(O)C1 (stereo not drawn) [1-menthol] | 0.8 % (w/w) | 8 | 
COc1cc(C=O)ccc1O [vanillin] |  |  | 5
